Article PMC9653804, “Multifunctional Derivatives of Spiropyrrolidine Tethered Indeno-Quinoxaline Heterocyclic Hybrids as Potent Antimicrobial, Antioxidant and Antidiabetic Agents: Design, Synthesis, In Vitro and In Silico Approaches” (Molecules, 2022)
Values after ≈ are worked out from the molar mass of the structure shown.

Legend:
[1] = DPPH free radical scavenging activity; conditions: DPPH radical scavenging
Procedure: DPPH, the stable artificial free radicals, has been widely used for the measurement of free radical scavenging capacity of the compounds in ethanol and aqueous systems. Briefly, 2 mL DPPH solution (0.2 mM, in 95% ethanol) was incubated with 2 mL different concentrations of compounds solution. Then, the reaction mixture was shaken and incubated in the dark for 40 min at room temperature. The absorbance was immediately recorded at 517 nm against ethanol with a spectrophotometer (Metash, model UV-5200, Shanghai Xiwen Biotech. Co., Ltd, Shanghai, China). The DPPH free radical scavenging rate was calculated using the equation:DPPH scavenging activity (%) = A0 − A1/A0 × 100 where A0 was the absorbance of the control reaction (containing all reagents except the tested compound), and A1 was the absorbance of the test reaction (containing all reagents with the tested compound). The percentage of DPPH radical scavenging activity was plotted against the sample concentration to acquire the IC50 value, defined as the concentration of sample necessary to cause 50% inhibition. Radical scavenging activity (RSA) was calculated from the IC50 value as the equation: RSA = pIC50 = −lg[IC50]. The smaller the IC50 value, the larger is the RSA value and the higher is the antioxidant activity.

[2] = Radical scavenging activity ABTS; conditions: for IC50: ABTS radical scavenging; for ABTS scavenging activity, fold higher than Trolox: relative to standard Trolox
Procedure: The ABTS assay was performed as previously described by Tuberoso et al.. ABTS^+ radical was generated by oxidation of ABTS with potassium persulfate. The blue–green ABTS was produced through the reaction between 2 mM ABTS and […] potassium persulfate in water. The mixture was left to stand in the dark for 12 to 16 h before use. The ABTS solution was diluted with methanol to an absorbance of 0.700 ± 0.005 at 734 nm. Then 2 mL of diluted ABTS solution was mixed with 100 μL of samples and absorbance was measured after 1 min incubation at room temperature. A standard curve was obtained by using Trolox as standard solution. The results were expressed as μM Trolox equivalent.
The mixture of 7 mmol/L aqueous ABTS solution with 2.45 mmol/L potassium persulfate solution constitutes a stable ABTS^+ stock solution that was allowed to stand in the dark and at room temperature for 12 to 16 h before use. A 1 mL sample of the diluted ABTS solution (adjusted to 0.7 ± 0.02 at […]) was added to 10 μL of each product. The absorbance was determined after 6 min. The percentage inhibition of the ABTS˙ radical was calculated from the following equation:% inhibition = (Abscontrol − Abstest)/Abscontrol × 100
Abs control: the control absorbance.
Abs test: the absorbance of the test sample after 6 min.

[3] = tested on: Staphylococcus aureus ATCC 25923; assay: Antimicrobial activity (MIC, MBC) against S. aureus; type: cell-based; conditions: S. aureus ATCC 25923; for MBC/MIC: bactericidal ≤ 4, bacteriostatic > 4; for MIC: Staphylococcus aureus, ATCC25923, '-' = No activity
[4] = Ferric reducing power assay (FRAP)
[5] = tested on: Candida krusei ATCC 6258; assay: Antifungal activity (MIC, MFC) against C. krusei; type: cell-based; conditions: C. krusei ATCC 6258, '-' = No activity; for MFC / MIC: Pichia kudriavzevii, ATCC6258
[6] = tested on: Pseudomonas aeruginosa ATCC 27853; assay: Antimicrobial activity (MIC, MBC) against P. aeruginosa; type: cell-based; conditions: P. aeruginosa ATCC 27853, '-' = No activity
[7] = tested on: Candida albicans ATCC 90028; assay: Antifungal activity (MIC, MFC) against C. albicans; type: cell-based; conditions: C. albicans ATCC 90028, '-' = No activity; for MFC/MIC: fungicidal ≤ 4, fungistatic > 4; for MFC / MIC: Candida albicans, ATCC90028
[8] = tested on: Escherichia coli ATCC 25922; assay: Antimicrobial activity (MIC, MBC) against E. coli; type: cell-based; conditions: E. coli ATCC 25922; '-' = No activity
[9] = tested on: Micrococccus luteus NCIMB 8166; assay: Antimicrobial activity (MIC, MBC) against M. luteus; type: cell-based; conditions: M. luteus NCIMB 8166, '-' = No activity; for MIC: Micrococcus luteus, NCIMB8166

Row | SMILES | IC50 [1] | IC50 [2] | MIC [3] | IC50 [4] | MFC/MIC [5] | MIC [5] | MBC/MIC [6] | MIC [7] | melting point | MBC/MIC [8] | MBC/MIC [9] | MIC [9] | MIC ([6]; Pseudomonas aeruginosa, ATCC27853) | MBC/MIC [3] | MFC [5] | MFC/MIC [7] | MFC [7] | ABTS scavenging activity, fold higher than Trolox [2]
1 | COc1ccccc1C1CN(C)C2(c3ccccc3-c3nc4ccccc4nc32)C12CC(=O)N(C)C2=O (stereo not shown) [5c, Spiro [2,11″]indeno-[1,2b]-quinoxaline-spiro-[3,3′]-N-methylsuccinimide-4-(2 methoxyphenyl)hexahydro-1H-pyrrolidines] | 3.26 ± 0.32 µM | 7.03 ± 0.07 µM | 31.7 mM (≈ 15.6 mg/mL) | 3.69 ± 0.72 µM | 1 | 63.4 mM (≈ 31.1 mg/mL) | 2 | 63.4 mM (≈ 31.1 mg/mL) | 196 to 198 °C | – | – | – | – | 16 | 63.4 mM (≈ 31.1 mg/mL) | 1 | 63.4 mM (≈ 31.1 mg/mL) | –
2 | CN1C(=O)CC2(C1=O)C(c1ccc(F)cc1)CN(C)C21c2ccccc2-c2nc3ccccc3nc21 (stereo not shown) [5g, Spiro [2,11″]indeno-[1,2b]-quinoxaline-spiro-[3,3′]-N-methylsuccinimide-4-(4-fluorophenyl)hexahydro-1H-pyrrolidines] | 26 ± 0.5 µM | 7.19 ± 0.11 µM | 16.2 mM (≈ 7.78 mg/mL) | 20.5 ± 0.6 µM | 1 | 32.5 mM (≈ 15.6 mg/mL) | 2 | 65 mM (≈ 31.1 mg/mL) | 205 to 207 °C | 2 | – | – | – | 16 | 32.5 mM (≈ 15.6 mg/mL) | 1 | 65 mM (≈ 31.1 mg/mL) | about 14 fold
3 | COc1ccc(C2CN(C)C3(c4ccccc4-c4nc5ccccc5nc43)C23CC(=O)N(C)C3=O)cc1 (stereo not shown) [5d, Spiro [2,11″]indeno-[1,2b]-quinoxaline-spiro-[3,3′]-N-methylsuccinimide-4-(4-methoxyphenyl)hexahydro-1H-pyrrolidines] | 7.44 ± 0.15 µM | 9.78 ± 0.3 µM | 3.95 mM (≈ 1.94 mg/mL) | 8.09 ± 0.82 µM | 1 | 15.8 mM (≈ 7.78 mg/mL) | 4 | 31.7 mM (≈ 15.6 mg/mL) | 179 to 181 °C | 4 | 4 | 63.4 mM (≈ 31.1 mg/mL) | – | 32 | 15.8 mM (≈ 7.78 mg/mL) | 4 | – | –
4 | C[C@@H]1[C@H](O)[C@@H](C)/C=C/C=C/C=C/C=C/C=C/C=C/C=C/[C@H](O[C@@H]2O[C@H](C)[C@@H](O)[C@H](N)[C@@H]2O)C[C@@H]2O[C@](O)(C[C@@H](O)C[C@@H](O)[C@H](O)CC[C@@H](O)C[C@@H](O)CC(=O)O[C@H]1C)C[C@H](O)[C@H]2C(=O)O [Amphotericin B, reference compound] | – | – | – | – | 1 | 5.41 mM (≈ 5 mg/mL) | – | 5.41 mM (≈ 5 mg/mL) | – | – | – | – | – | – | 5.41 mM (≈ 5 mg/mL) | 1 | 5.41 mM (≈ 5 mg/mL) | –
5 | CN1C(=O)CC2(C1=O)C(c1ccccc1)CN(C)C21c2ccccc2-c2nc3ccccc3nc21 (stereo not shown) [5a, Spiro [2,11″]indeno-[1,2b]-quinoxaline-spiro-[3,3′]-N-methylsuccinimide-4-(phenyl)hexahydro-1H-pyrrolidines] | 15.4 ± 0.65 µM | 49.19 ± 0.46 µM | – | 17 ± 0.52 µM | 1 | 67.6 mM (≈ 31.1 mg/mL) | 4 | – | 173 to 175 °C | 2 | – | – | – | 2 | 67.6 mM (≈ 31.1 mg/mL) | 1 | – | –
6 | Cc1ccc(C2CN(C)C3(c4ccccc4-c4nc5ccccc5nc43)C23CC(=O)N(C)C3=O)cc1 (stereo not shown) [5b, Spiro [2,11″]indeno-[1,2b]-quinoxaline-spiro-[3,3′]-N-methylsuccinimide-4-(4-methylphenyl)hexahydro-1H-pyrrolidines] | 33.74 ± 0.004 µM | 57.51 ± 0.55 µM | 65.6 mM (≈ 31.1 mg/mL) | 63.26 ± 0.21 µM | 1 | 65.6 mM (≈ 31.1 mg/mL) | 4 | – | 183 to 185 °C | 2 | – | – | – | 8 | 65.6 mM (≈ 31.1 mg/mL) | 2 | – | –
7 | CN1C(=O)CC2(C1=O)C(c1cc(Br)c(O)c(Br)c1)CN(C)C21c2ccccc2-c2nc3ccccc3nc21 (stereo not shown) [5m, Spiro [2,11″]indeno-[1,2b]-quinoxaline-spiro-[3,3′]-N-methylsuccinimide-4-(3,5-dibromo-4-hydroxyphenyl)hexahydro-1H-pyrrolidines] | 47.29 ± 0.06 µM | 14.6 ± 0.26 µM | 24.5 mM (≈ 15.6 mg/mL) | 7.38 ± 0.14 µM | 1 | 49.1 mM (≈ 31.1 mg/mL) | 4 | 98.2 mM (≈ 62.3 mg/mL) | 214 to 216 °C | 1 | – | 98.2 mM (≈ 62.3 mg/mL) | 98.2 mM (≈ 62.3 mg/mL) | 8 | 49.1 mM (≈ 31.1 mg/mL) | 1 | 98.2 mM (≈ 62.3 mg/mL) | –
8 | CN(C)[C@@H]1C(O)=C(C(N)=O)C(=O)[C@@]2(O)C(O)=C3C(=O)c4c(O)cccc4[C@@](C)(O)[C@H]3C[C@@H]12 [Tetracycline, reference compound] | – | – | – | – | – | – | 2 | – | – | 1 | 2 | – | – | 2 | – | – | – | –
9 | CN1C(=O)CC2(C1=O)C(c1ccc(Br)cc1)CN(C)C21c2ccccc2-c2nc3ccccc3nc21 (stereo not shown) [5f, Spiro [2,11″]indeno-[1,2b]-quinoxaline-spiro-[3,3′]-N-methylsuccinimide-4-(4-bromophenyl)hexahydro-1H-pyrrolidines] | 16.1 ± 0.39 µM | 18.1 ± 0.53 µM | – | 7.93 ± 0.44 µM | 1 | 57.7 mM (≈ 31.1 mg/mL) | 2 | 57.7 mM (≈ 31.1 mg/mL) | 200 to 202 °C | 2 | – | – | – | 2 | 57.7 mM (≈ 31.1 mg/mL) | 1 | 57.7 mM (≈ 31.1 mg/mL) | ~6 fold

Further molecules by falling IC50 [1], results first:

Row | IC50 [1] | IC50 [2] | MIC [3] | IC50 [4] | MFC/MIC [5] | MIC [5] | MBC/MIC [6] | MIC [7] | melting point | MBC/MIC [8] | MBC/MIC [9] | MIC [9] | MIC ([6]; Pseudomonas aeruginosa, ATCC27853) | SMILES | MBC/MIC [3] | MFC [5] | MFC/MIC [7] | MFC [7] | ABTS scavenging activity, fold higher than Trolox [2]
10 | 123.4 ± 0.45 µM | 7.69 ± 0.36 µM | 54.7 mM (≈ 31.1 mg/mL) | 6.03 ± 0.12 µM | 1 | 54.7 mM (≈ 31.1 mg/mL) | 2 | – | 209 to 211 °C | 2 | – | – | – | COc1ccc(C2CN(C)C3(c4ccccc4-c4nc5ccccc5nc43)C23CC(=O)N(C)C3=O)cc1Br (stereo not shown) [5k, Spiro [2,11″]indeno-[1,2b]-quinoxaline-spiro-[3,3′]-N-methylsuccinimide-4-(3-bromo-4-methoxyphenyl)hexahydro-1H-pyrrolidines] | 8 | 54.7 mM (≈ 31.1 mg/mL) | 1 | – | –
11 | 31.2 ± 3.67 µM | 99.88 ± 0.31 µM | – | 41.9 ± 2.07 µM | – | – | – | – | – | – | – | – | – | Cc1c(C)c2c(c(C)c1O)CCC(C)(C(=O)O)O2 (stereo not shown) [Trolox, reference compound] | – | – | – | – | –
12 | 19.2 ± 0.19 µM | 11.56 ± 0.05 µM | 14.9 mM (≈ 7.78 mg/mL) | 5.98 ± 0.17 µM | 1 | 59.8 mM (≈ 31.1 mg/mL) | 2 | – | 211 to 213 °C | 2 | 2 | – | – | COc1ccc(C2CN(C)C3(c4ccccc4-c4nc5ccccc5nc43)C23CC(=O)N(C)C3=O)cc1OC (stereo not shown) [5j, Spiro [2,11″]indeno-[1,2b]-quinoxaline-spiro-[3,3′]-N-methylsuccinimide-4-(3,4-dimethoxyphenyl)hexahydro-1H-pyrrolidines] | 32 | 59.8 mM (≈ 31.1 mg/mL) | 2 | – | –
13 | 15.3 ± 0.37 µM | 15.2 ± 0.31 µM | 28 mM (≈ 15.6 mg/mL) | 3.26 ± 0.45 µM | 1 | 28 mM (≈ 15.6 mg/mL) | 4 | 56.1 mM (≈ 31.1 mg/mL) | 189 to 191 °C | 2 | 2 | – | – | CN1C(=O)CC2(C1=O)C(c1ccc(O)c(Br)c1)CN(C)C21c2ccccc2-c2nc3ccccc3nc21 (stereo not shown) [5l, Spiro [2,11″]indeno-[1,2b]-quinoxaline-spiro-[3,3′]-N-methylsuccinimide-4-(3-bromo-4-hydroxy-phenyl)hexahydro-1H-pyrrolidines] | 16 | 28 mM (≈ 15.6 mg/mL) | 8 | – | –
